Measurements published in the NIST ThermoML archive (doi:10.1016/j.jct.2013.12.016).
Numbers after ± are expanded uncertainties.

Key:
[1] = Molar enthalpy of transition or fusion; conditions: DSC
[2] = DTA

SMILES | Molar enthalpy of transition or fusion ([1]; Crystal 1) [kcal/mol] | Molar enthalpy of transition or fusion ([1]; Crystal 2) [kcal/mol] | Triple point temperature ([2]; Crystal 1) [K] | Triple point temperature ([2]; Crystal 2) [K] | Molar enthalpy of transition or fusion ([1]; Crystal) [kcal/mol] | Triple point temperature ([2]; Crystal) [K]
CNC(=O)C(C)NC(C)=O (stereo unspecified) [2-acetamido-N-methylpropanamide] | 3.8 ± 0.115 | 1.84 ± 0.0765 | 411.9 ± 2 | 368.43 ± 0.39 | – | –
CNC(=O)CNC(C)=O [2-acetamido-N-methylacetamide] | – | – | – | – | 5.65 ± 0.129 | 430.73 ± 0.39
CNC(=O)[C@H](C)NC(C)=O [(S)-2-acetamido-N-methylpropanamide] | 5.94 ± 0.134 | 1.34 ± 0.0454 | 454.8 ± 0.39 | 395.07 ± 0.41 | – | –
CNC(=O)[C@@H]1CCCN1C(C)=O [(2S)-1-acetyl-N-methyl-2-pyrrolidinecarboxamide] | – | – | – | – | 5.96 ± 0.134 | 375.85 ± 0.39
CC[C@H](C)[C@H](NC(C)=O)C(=O)NC [(2S,3S)-2-acetamido-N,3-dimethylpentanamide] | – | – | – | – | 9.11 ± 0.21 | 525.72 ± 0.39
CNC(=O)C1CCCN1C(C)=O (stereo unspecified) [1-acetyl-N-methylprolinamide] | – | – | – | – | 6.23 ± 0.139 | 378.12 ± 0.39
CC[C@H](C)[C@H](NC(C)=O)C(=O)NC (racemic) [N-acetyl-N'-methyl-DL-isoleucinamide] | – | – | – | – | 6.48 ± 0.143 | 482.02 ± 0.39

Continued, values first:

Molar enthalpy of transition or fusion ([1]; Crystal 1) [kcal/mol] | Molar enthalpy of transition or fusion ([1]; Crystal 2) [kcal/mol] | Triple point temperature ([2]; Crystal 1) [K] | Triple point temperature ([2]; Crystal 2) [K] | Molar enthalpy of transition or fusion ([1]; Crystal) [kcal/mol] | Triple point temperature ([2]; Crystal) [K] | SMILES
– | – | – | – | 5.91 ± 0.134 | 434.83 ± 0.4 | CCC(NC(C)=O)C(=O)NC (stereo unspecified) [2-acetamido-N-methylbutanamide]
– | – | – | – | 6.27 ± 0.143 | 432.29 ± 0.39 | CCCC(NC(C)=O)C(=O)NC (racemic) [N-acetyl-N'-methyl-DL-norvalinamide]
– | – | – | – | 8.21 ± 0.177 | 444 ± 0.39 | CCCCC(NC(C)=O)C(=O)NC (stereo unspecified) [2-acetamido-N-methylhexanamide]
– | – | – | – | 5.54 ± 0.127 | 438.2 ± 0.39 | CNC(=O)[C@H](CC(C)C)NC(C)=O [(S)-2-acetamido-N,4-dimethylpentanamide]
